Measured values as given in ChEMBL document CHEMBL1949578, “Inhibitors of acetyltransferase domain of N-acetylglucosamine-1-phosphate-uridyltransferase/glucosamine-1-phosphate-acetyltransferase (GlmU). Part 1: Hit to lead evaluation of a novel arylsulfonamide series” (Bioorg Med Chem Lett, 2012).

Assays:
[1] = target: Bifunctional protein GlmU (Streptococcus pneumoniae serotype 4 (strain ATCC BAA-334 / TIGR4), UniProt Q97R46); assay: (§1) Inhibition of Streptococcus pneumoniae acetyltransferase activity of GlmU using acetyl-CoA and glucosamine-1-phosphate after 30 mins by Ellman's method
[2] = Inhibition of Escherichia coli acetyltransferase activity of GlmU using acetyl-CoA and glucosamine-1-phosphate after 30 mins by Ellman's method
[3] = Inhibition of Haemophilus influenzae acetyltransferase activity of GlmU using acetyl-CoA and glucosamine-1-phosphate after 30 mins by Ellman's method
[4] = Inhibition of Staphylococcus aureus acetyltransferase activity of GlmU using acetyl-CoA and glucosamine-1-phosphate after 30 mins by Ellman's method
[5] = Lipophilicity, log D of the compound at pH 7.4; conditions: buffer
[6] = target: Bifunctional protein GlmU (Streptococcus pneumoniae serotype 4 (strain ATCC BAA-334 / TIGR4)) (UniProt Q97R46); assay: as §1
Sequence of Bifunctional protein GlmU (Streptococcus pneumoniae serotype 4 (strain ATCC BAA-334 / TIGR4)) (Q97R46 whole entry): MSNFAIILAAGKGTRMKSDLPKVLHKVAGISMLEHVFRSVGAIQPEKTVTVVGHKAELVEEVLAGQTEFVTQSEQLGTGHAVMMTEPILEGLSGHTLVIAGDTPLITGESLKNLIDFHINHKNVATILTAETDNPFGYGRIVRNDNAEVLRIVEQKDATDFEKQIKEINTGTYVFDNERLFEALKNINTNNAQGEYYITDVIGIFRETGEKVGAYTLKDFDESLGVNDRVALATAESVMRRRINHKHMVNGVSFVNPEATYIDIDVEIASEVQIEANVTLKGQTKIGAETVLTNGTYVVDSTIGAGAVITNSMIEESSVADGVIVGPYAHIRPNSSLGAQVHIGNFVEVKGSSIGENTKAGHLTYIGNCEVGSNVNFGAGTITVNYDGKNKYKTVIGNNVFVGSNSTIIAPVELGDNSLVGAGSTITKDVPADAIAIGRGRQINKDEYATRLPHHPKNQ

Sequence of Bifunctional protein GlmU (Q97R46 whole entry): as above

SMILES: COc1cc(OC)c(S(=O)(=O)N(C)c2ccccc2)cc1NC(C)=O
- IC50 [1]: > 200 µM
- IC50 [2]: 3 µM
- IC50 [3]: 6 µM
- IC50 [4]: > 200 µM

SMILES: COc1cc(OC)c(S(=O)(=O)N2c3ccccc3CC2C)cc1NC(C)=O (stereo not drawn)
- IC50 [1]: > 200 µM
- IC50 [3]: 8 µM
- IC50 [4]: > 200 µM

SMILES: COc1cc(OC)c(S(=O)(=O)Nc2ccccc2)cc1NC(C)=O
- IC50 [1]: > 200 µM
- IC50 [2]: 20 µM
- IC50 [3]: 70 µM
- IC50 [4]: > 200 µM

SMILES: COc1cc(OC)c(S(=O)(=O)Nc2ccc(C)cc2)cc1NC(C)=O
- IC50 [1]: > 200 µM
- IC50 [2]: 21 µM
- IC50 [3]: 47 µM
- IC50 [4]: > 200 µM

SMILES: COc1cc(OC)c(S(=O)(=O)NCc2ccc3c(c2)OCO3)cc1NC(C)=O
- IC50 [1]: > 200 µM
- IC50 [2]: > 200 µM
- IC50 [3]: > 200 µM
- IC50 [4]: > 200 µM

SMILES: COc1cc(OC)c(S(=O)(=O)N2c3ccccc3CCC2C)cc1NC(C)=O (stereo not drawn)
- IC50 [1]: 55 µM
- IC50 [2]: 1.5 µM
- logD [5]: 1.97
- IC50 [3]: 3 µM
- IC50 [4]: > 200 µM

SMILES: COc1cc(OC)c(S(=O)(=O)NCc2ccccc2N2CCC(CC(=O)O)CC2)cc1NC(=O)CCC(=O)O
- IC50 [1]: 2 µM
- IC50 [2]: < 0.4 µM
- IC50 [3]: 3 µM
- IC50 [4]: 10 µM

SMILES: COc1cc(OC)c(S(=O)(=O)NCc2ccccc2N2CCCCC2)cc1NC(=O)CCC(=O)O
- IC50 [1]: 12 µM
- IC50 [2]: 3 µM
- logD [5]: -0.72
- IC50 [3]: 5 µM
- IC50 [4]: > 200 µM

SMILES: COc1cc(OC)c(S(=O)(=O)N(c2ccccc2)C(C)C)cc1NC(C)=O
- IC50 [1]: > 200 µM
- IC50 [2]: 2 µM
- IC50 [3]: 16 µM
- IC50 [4]: > 200 µM

SMILES: COc1cc(OC)c(S(=O)(=O)N2CCCCC2C)cc1NC(C)=O (stereo not drawn)
- IC50 [1]: > 200 µM
- IC50 [2]: 130 µM
- IC50 [3]: > 200 µM
- IC50 [4]: > 200 µM

SMILES: COc1cc(OC)c(S(=O)(=O)N2c3ccccc3CCC2C)cc1NC(=O)COC(C)=O (stereo not drawn)
- IC50 [1]: 90 µM
- IC50 [2]: 2 µM
- IC50 [3]: 2 µM
- IC50 [4]: > 200 µM

SMILES: COc1cc(OC)c(S(=O)(=O)N2CCCCC2)cc1NC(C)=O
- IC50 [1]: > 200 µM
- IC50 [2]: 80 µM
- IC50 [3]: > 200 µM
- IC50 [4]: > 200 µM

SMILES: COc1cc(OC)c(S(=O)(=O)N2c3ccccc3CCC2C)cc1NC(=S)NCC(=O)O (stereo not drawn)
- IC50 [1]: 30 µM
- IC50 [2]: 0.5 µM
- logD [5]: -1.04
- IC50 [3]: 1 µM
- IC50 [4]: > 200 µM

SMILES: COc1cc(OC)c(S(=O)(=O)N2c3ccccc3CCC2C)cc1NC(=O)NCC(=O)O (stereo not drawn)
- IC50 [1]: 20 µM
- IC50 [2]: 0.5 µM
- logD [5]: -1.02
- IC50 [3]: 5 µM
- IC50 [4]: > 200 µM

SMILES: COc1cc(OC)c(S(=O)(=O)N2c3ccccc3CCC2C)cc1NC(=O)CSCC(=O)O (stereo not drawn)
- IC50 [1]: > 200 µM
- IC50 [2]: 0.1 µM
- logD [5]: -1.2
- IC50 [3]: 0.2 µM
- IC50 [4]: > 200 µM

SMILES: COC(=O)c1ccccc1CNS(=O)(=O)c1cc(NC(C)=O)c(OC)cc1OC
- IC50 [1]: > 200 µM
- IC50 [2]: 15 µM
- IC50 [3]: 55 µM
- IC50 [4]: > 200 µM

SMILES: COc1cc(OC)c(S(=O)(=O)N(C)C)cc1NC(C)=O
- IC50 [1]: > 200 µM
- IC50 [2]: > 200 µM
- IC50 [3]: > 200 µM
- IC50 [4]: > 200 µM

SMILES: COc1cc(OC)c(S(=O)(=O)N2c3ccccc3CCC2C)cc1NC(=O)c1ccccc1 (stereo not drawn)
- IC50 [1]: > 200 µM
- IC50 [2]: > 200 µM
- IC50 [3]: > 200 µM
- IC50 [4]: > 200 µM

SMILES: COc1cc(OC)c(S(=O)(=O)N2c3ccccc3CCC2C)cc1NC(=O)COc1ccc(C(C)=O)cc1 (stereo not drawn)
- IC50 [1]: > 200 µM
- IC50 [2]: > 200 µM
- IC50 [3]: > 200 µM
- IC50 [4]: > 200 µM

SMILES: COc1ccccc1CNS(=O)(=O)c1cc(NC(C)=O)c(OC)cc1OC
- IC50 [1]: > 200 µM
- IC50 [2]: 10 µM
- IC50 [3]: 54 µM
- IC50 [4]: > 200 µM

SMILES: COc1cc(OC)c(S(=O)(=O)NCc2ccccc2N2CCC(CO)CC2)cc1NC(=O)CCC(=O)O
- IC50 [1]: 5 µM
- IC50 [2]: 3 µM
- logD [5]: < -1
- IC50 [3]: 6 µM
- IC50 [4]: > 200 µM

SMILES: COc1cc(OC)c(S(=O)(=O)Nc2ccccc2F)cc1NC(C)=O
- IC50 [1]: > 200 µM
- IC50 [2]: 5 µM
- IC50 [3]: 10 µM
- IC50 [4]: > 200 µM

SMILES: COc1cc(OC)c(S(=O)(=O)N2c3ccccc3CCC2C)cc1NC(=O)/C=C/C(=O)O (stereo not drawn)
- IC50 [1]: 10 µM
- IC50 [2]: 0.5 µM
- IC50 [3]: 2 µM
- IC50 [4]: > 200 µM

SMILES: COc1cc(OC)c(S(=O)(=O)N2c3ccccc3CCC2C)cc1NS(C)(=O)=O (stereo not drawn)
- IC50 [1]: > 200 µM
- IC50 [2]: 100 µM
- IC50 [3]: > 200 µM
- IC50 [4]: > 200 µM

SMILES: COc1cc(OC)c(S(=O)(=O)N2c3ccccc3CCC2C)cc1NC(=O)COCC(=O)O (stereo not drawn)
- inhibition [6]: 28%
- IC50 [2]: 0.2 µM
- logD [5]: -1
- IC50 [3]: 0.3 µM
- IC50 [4]: > 200 µM

SMILES: CCN(c1ccccc1C)S(=O)(=O)c1cc(NC(C)=O)c(OC)cc1OC
- IC50 [1]: > 200 µM
- IC50 [2]: 15 µM
- IC50 [3]: 80 µM
- IC50 [4]: > 200 µM

SMILES: COc1cc(OC)c(S(=O)(=O)Nc2cccc(C)c2)cc1NC(C)=O
- IC50 [1]: > 200 µM
- IC50 [2]: 17 µM
- IC50 [3]: 40 µM
- IC50 [4]: > 200 µM

SMILES: COc1cc(OC)c(S(=O)(=O)NCc2ccccc2Br)cc1NC(C)=O
- IC50 [1]: > 200 µM
- IC50 [2]: 4 µM
- IC50 [3]: 20 µM
- IC50 [4]: > 200 µM

SMILES: COc1cc(OC)c(S(=O)(=O)Nc2cccc(F)c2)cc1NC(C)=O
- IC50 [1]: > 200 µM
- IC50 [2]: 15 µM
- IC50 [3]: 30 µM
- IC50 [4]: > 200 µM

SMILES: COc1cc(OC)c(S(=O)(=O)NCc2ccccc2N2CCCCC2)cc1NC(C)=O
- IC50 [2]: > 200 µM
- IC50 [3]: 120 µM
- IC50 [4]: > 200 µM

SMILES: COc1cc(OC)c(S(=O)(=O)Nc2ccc(F)cc2)cc1NC(C)=O
- IC50 [1]: > 200 µM
- IC50 [2]: 25 µM
- IC50 [3]: 60 µM
- IC50 [4]: > 200 µM

SMILES: COc1cc(OC)c(S(=O)(=O)NCc2ccccc2N2CCC(CO)CC2)cc1NC(C)=O
- IC50 [1]: 70 µM
- IC50 [2]: 40 µM
- logD [5]: 1.03
- IC50 [3]: 80 µM
- IC50 [4]: > 200 µM

SMILES: COc1cc(OC)c(S(=O)(=O)NCc2ccccc2-c2ccc(C(=O)O)cc2)cc1NC(=O)CCC(=O)O
- IC50 [1]: 15 µM
- IC50 [2]: 0.9 µM
- IC50 [3]: 5 µM

SMILES: COc1cc(OC)c(S(=O)(=O)NCc2ccccc2N2CCC(COC(=O)CCC(=O)O)CC2)cc1NC(=O)CCC(=O)O
- IC50 [2]: 0.25 µM
- logD [5]: -1
- IC50 [4]: > 200 µM

SMILES: COc1cc(OC)c(S(=O)(=O)N2c3ccccc3CCC2C)cc1NC(=O)CSc1ccncc1 (stereo not drawn)
- IC50 [1]: > 200 µM
- IC50 [2]: 1 µM
- logD [5]: 2.8
- IC50 [3]: 6 µM
- IC50 [4]: > 200 µM

SMILES: COc1cc(OC)c(S(=O)(=O)NCc2ccccc2N2CCC(C(=O)O)CC2)cc1NC(=O)CCC(=O)O
- IC50 [1]: 2 µM
- IC50 [2]: 0.5 µM
- IC50 [3]: 1 µM
- IC50 [4]: 50 µM

SMILES: COc1cc(OC)c(S(=O)(=O)N2c3ccccc3CCC2C)cc1NC(=O)CCC(=O)O (stereo not drawn)
- IC50 [1]: 20 µM
- IC50 [2]: 0.09 µM
- logD [5]: -0.87
- IC50 [3]: 0.6 µM
- IC50 [4]: > 200 µM

SMILES: COc1cc(OC)c(S(=O)(=O)N2CCCC2C)cc1NC(C)=O (stereo not drawn)
- IC50 [1]: > 200 µM
- IC50 [2]: > 200 µM
- IC50 [3]: > 200 µM
- IC50 [4]: > 200 µM
